Experimental data reported in US20060069132A1, “Azolecarboxamide herbicides” (priority 2004, published 2006).

Key:
barnyardgrass [1] = experiment: Test A pre-/postemergence herbicide test; format: in vivo, Echinochloa crus-galli
Outline: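 Visual injury rating on a 0–100 scale (0 no effect, 100 complete control) versus untreated controls, about ten days after treatment in greenhouse. Pre: directed soil spray onto seeded sandy loam. Post: spray to runoff on plants 2–10 cm tall at one- to two-leaf stage.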

cocklebur = experiment: Test C pre-/postemergence herbicide test; format: in vivo, Xanthium strumarium; conditions: for Plant response rating, Cocklebur: preemergence
Outline: (§1)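 Pre- and postemergence application, solvent/surfactant formulation; post at 1- to 4-leaf stage (2–18 cm). Greenhouse 12–14 d. Visual rating vs controls, 0 = no effect, 100 = complete control.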

corn = experiment: Test C pre-/postemergence herbicide test; format: in vivo, Zea mays; conditions: preemergence
Outline: as §1

large crabgrass = experiment: Test C pre-/postemergence herbicide test; format: in vivo, Digitaria sanguinalis; conditions: preemergence
Outline: as §1

lambsquarters = experiment: Test C pre-/postemergence herbicide test; format: in vivo, Chenopodium album; conditions: preemergence
Outline: as §1

eastern black nightshade = experiment: Test C pre-/postemergence herbicide test; format: in vivo, Solanum ptycanthum; conditions: preemergence
Outline: as §1

pigweed = experiment: Test C pre-/postemergence herbicide test; format: in vivo, Amaranthus retroflexus; conditions: preemergence
Outline: as §1

common ragweed = experiment: Test C pre-/postemergence herbicide test; format: in vivo, Ambrosia elatior; parameters: key to Plant response rating, Ragweed: 0 = no effect, 100 = complete control; conditions: preemergence
Outline: as §1

[2] = tested on: common (oilseed) sunflower; experiment: Test C pre-/postemergence herbicide test; format: in vivo, Helianthus annuus; conditions: preemergence
Outline: as §1

velvetleaf = experiment: Test C pre-/postemergence herbicide test; format: in vivo, Abutilon theophrasti; conditions: preemergence
Outline: as §1

[3] = tested on: smallflower umbrella sedge; experiment: Test C flooded paddy test; format: in vivo, Cyperus difformis
ducksalad = experiment: Test C flooded paddy test; format: in vivo, Heteranthera limosa
barnyardgrass [4] = experiment: Test C flooded paddy test; format: in vivo, Echinochloa crus-galli
Outline: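 Greenhouse test with a 12–14 day hold after application and visual comparison with controls. Emerged plants were 1- to 4-leaf stage (2–18 cm) when sprayed postemergence, and the paddy barnyardgrass was at 2 leaves under flooded conditions. 100 = complete control.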

[5] = 125 g ai/ha, scale 0 (no effect) to 100 (complete control), visual, 12 to 14 days
[6] = 500 g ai/ha, scale 0 to 100 (0 no effect, 100 complete control), visual, 12 to 14 days
[7] = 62 g ai/ha, scale 0 to 100 (0 no effect, 100 complete control)
[8] = 125 g ai/ha, scale 0 to 100 (0 no effect, 100 complete control)
[9] = 250 g ai/ha, scale of 0 to 100, 0 is no effect, 100 is complete control
[10] = 500 g ai/ha, visual rating after 12 to 14 days, scale 0 to 100 (0 no effect, 100 complete control)

CCc1nn(C(C)(C)C)cc1C(=O)Nc1cc(C(=O)N(CC)CC)ccc1F [Compound 223]
Barnyardgrass plant response rating (barnyardgrass [1]; Postemergence, 500 g ai/ha, 0 to 100 scale, 0 no effect, 100 complete control): 10
Plant response rating, Barnyardgrass (barnyardgrass [1]; Postemergence, 2000 g ai/ha, 0 to 100 scale, 0 no effect, 100 complete control): 55
Barnyardgrass plant response rating (barnyardgrass [1]; Preemergence, 2000 g ai/ha, visual rating, 0 to 100 scale (0 no effect, 100 complete control)): 80
Barnyardgrass plant response rating (barnyardgrass [1]; preemergence, 500 g ai/ha, visual injury, 0 to 100 scale (0 no effect, 100 complete control)): 55
Plant response rating, Cocklebur (cocklebur; 62 g ai/ha, scale 0 to 100): 0
Plant response rating, Cocklebur (cocklebur; [5]): 0
Plant response rating, Cocklebur (cocklebur; 250 g ai/ha, scale 0-100): 0
Cocklebur plant response rating (cocklebur; Preemergence, 500 g ai/ha, scale 0 to 100, 0 no effect, 100 complete control): 0
Plant response rating, Corn (corn; 62 g ai/ha, scale 0 to 100): 0
Plant response rating, Corn (corn; [5]): 0
Plant response rating, Corn (corn; 250 g ai/ha, scale 0-100): 5
Plant response rating, Corn (corn; [6]): 50
Plant response rating, Crabgrass, Large (large crabgrass; 62 g ai/ha, scale 0 to 100): 100
Plant response rating, Crabgrass, Large (large crabgrass; [5]): 100
Plant response rating, Crabgrass, Large (large crabgrass; 250 g ai/ha, scale 0-100): 100
Plant response rating, Crabgrass, Large (large crabgrass; [6]): 100
Plant response rating, Lambsquarters (lambsquarters; 62 g ai/ha, scale 0 to 100): 95
Plant response rating, Lambsquarters (lambsquarters; [5]): 100
Plant response rating, Lambsquarters (lambsquarters; 250 g ai/ha, scale 0-100): 100
Plant response rating, Lambsquarters (lambsquarters; [6]): 100
Plant response rating, Nightshade (eastern black nightshade; 62 g ai/ha, scale 0 to 100): 100
Plant response rating, Nightshade (eastern black nightshade; [5]): 100
Plant response rating, Nightshade (eastern black nightshade; 250 g ai/ha, scale 0-100): 100
Plant response rating, Nightshade (eastern black nightshade; [6]): 100
Plant response rating, Pigweed (pigweed; 62 g ai/ha, scale 0 to 100): 100
Plant response rating, Pigweed (pigweed; [5]): 100
Plant response rating, Pigweed (pigweed; 250 g ai/ha, scale 0-100): 100
Plant response rating, Pigweed (pigweed; [6]): 100
Plant response rating, Ragweed (common ragweed; 250 g ai/ha, scale 0-100): 100
Plant response rating, Ragweed (common ragweed; [6]): 100
Plant response rating, Sunflower ([2]; 62 g ai/ha, scale 0 to 100): 0
Plant response rating, Sunflower ([2]; 250 g ai/ha, scale 0-100): 0
Plant response rating, Sunflower [2, 6]: 30
Plant response rating, Velvetleaf (velvetleaf; 62 g ai/ha, scale 0 to 100): 0
Plant response rating, Velvetleaf (velvetleaf; 250 g ai/ha, scale 0-100): 100
Plant response rating, Velvetleaf (velvetleaf; [6]): 100
Sedge, Umbrella plant response rating [3, 7]: 0
Sedge, Umbrella plant response rating [3, 8]: 0
Sedge, Umbrella plant response rating [3, 9]: 65
Plant response rating, Sedge, Umbrella [3, 10]: 85
Ducksalad plant response rating (ducksalad; [7]): 0
Ducksalad plant response rating (ducksalad; [8]): 0
Ducksalad plant response rating (ducksalad; [9]): 25
Plant response rating, Ducksalad (ducksalad; [10]): 55
Barnyardgrass plant response rating (barnyardgrass [4]; [7]): 0
Barnyardgrass plant response rating (barnyardgrass [4]; [8]): 0
Barnyardgrass plant response rating (barnyardgrass [4]; [9]): 0
Plant response rating, Barnyardgrass (barnyardgrass [4]; [10]): 45
